Results as given in ChEMBL document CHEMBL1201862, “PubChem BioAssay data set” (2004).
Active and inactive are the calls of the source.

Experiments:
[1] = Luminescence Cell-Based Dose Retest to Confirm Inhibitors of Cancer Stem Cells. [Related pubchem assays (depositor defined):AID2717, AID2721]; assay type: functional; settings: Homo sapiens
[2] = target: T1, Replicative DNA helicase DnaB (Mycobacterium tuberculosis, UniProt P9WMR3); assay: DnaB intein splicing inhibitors, dose response, biochemical, cell-free fluorescence (AID 449749); assay type: functional
T1 sequence (P9WMR3 whole entry): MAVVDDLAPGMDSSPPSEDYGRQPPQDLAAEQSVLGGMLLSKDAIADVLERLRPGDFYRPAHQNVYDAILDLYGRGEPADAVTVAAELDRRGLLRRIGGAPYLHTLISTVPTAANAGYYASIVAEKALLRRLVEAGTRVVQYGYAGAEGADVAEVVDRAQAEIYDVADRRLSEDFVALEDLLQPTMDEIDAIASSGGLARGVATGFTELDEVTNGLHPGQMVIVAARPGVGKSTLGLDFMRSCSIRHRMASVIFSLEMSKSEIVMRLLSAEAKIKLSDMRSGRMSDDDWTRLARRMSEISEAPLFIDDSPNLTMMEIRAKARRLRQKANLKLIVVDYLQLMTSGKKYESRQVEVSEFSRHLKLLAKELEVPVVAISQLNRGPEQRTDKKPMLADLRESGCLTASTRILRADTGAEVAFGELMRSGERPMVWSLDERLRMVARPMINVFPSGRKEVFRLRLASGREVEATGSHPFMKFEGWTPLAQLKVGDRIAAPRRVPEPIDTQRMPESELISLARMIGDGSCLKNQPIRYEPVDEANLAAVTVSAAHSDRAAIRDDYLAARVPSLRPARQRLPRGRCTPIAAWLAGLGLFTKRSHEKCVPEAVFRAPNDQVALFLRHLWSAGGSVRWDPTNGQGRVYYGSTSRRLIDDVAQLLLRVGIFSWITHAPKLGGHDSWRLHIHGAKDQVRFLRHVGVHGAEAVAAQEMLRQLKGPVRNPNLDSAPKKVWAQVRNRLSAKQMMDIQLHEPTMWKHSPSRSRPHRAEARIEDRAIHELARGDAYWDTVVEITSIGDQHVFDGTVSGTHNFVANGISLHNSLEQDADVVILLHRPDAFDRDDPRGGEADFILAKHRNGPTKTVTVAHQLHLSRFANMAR

[3] = test system: Vero; assay: cells; assay type: functional, cell-based; settings: Chlorocebus sabaeus
[4] = target: T2, Protein RecA (Mycobacterium tuberculosis, UniProt P9WHJ3); assay: Fluorescence Cell-Free Homogeneous Dose Retest to Identify Inhibitors of RecA-Intein Splicing Activity. [Related pubchem assays (depositor defined):AID2097, AID2223, AID489010, AID492950]; assay type: functional
T2 sequence (P9WHJ3 whole entry): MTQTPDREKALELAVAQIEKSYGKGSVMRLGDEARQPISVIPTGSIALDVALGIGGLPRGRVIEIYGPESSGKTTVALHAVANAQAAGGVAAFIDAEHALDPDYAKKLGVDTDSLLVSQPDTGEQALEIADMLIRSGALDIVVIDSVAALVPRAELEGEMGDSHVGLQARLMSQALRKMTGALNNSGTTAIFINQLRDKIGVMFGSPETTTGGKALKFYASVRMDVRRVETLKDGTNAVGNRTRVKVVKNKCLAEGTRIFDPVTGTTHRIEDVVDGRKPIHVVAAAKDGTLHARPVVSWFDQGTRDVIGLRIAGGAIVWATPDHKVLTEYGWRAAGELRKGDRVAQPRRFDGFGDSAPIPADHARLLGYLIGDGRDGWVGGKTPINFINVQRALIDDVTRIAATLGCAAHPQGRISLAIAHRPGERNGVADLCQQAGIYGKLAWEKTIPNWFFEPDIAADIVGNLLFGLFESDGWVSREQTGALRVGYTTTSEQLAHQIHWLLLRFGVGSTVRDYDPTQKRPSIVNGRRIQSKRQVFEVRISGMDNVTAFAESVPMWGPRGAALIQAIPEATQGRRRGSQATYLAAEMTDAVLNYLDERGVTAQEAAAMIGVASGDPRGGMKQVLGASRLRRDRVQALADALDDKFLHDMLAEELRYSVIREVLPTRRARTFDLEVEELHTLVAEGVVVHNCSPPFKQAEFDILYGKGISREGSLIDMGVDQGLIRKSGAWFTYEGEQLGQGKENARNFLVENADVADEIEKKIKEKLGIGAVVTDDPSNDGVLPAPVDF

[5] = test system: Vero; assay: cells; assay type: functional; settings: Chlorocebus sabaeus
[6] = target: T3, Mitochondrial peptide methionine sulfoxide reductase (Bos taurus, UniProt P54149); assay: Absorbance-based biochemical high throughput dose response assay for activators of Methionine sulfoxide reductase A (MsrA).; assay type: functional
T3 sequence (P54149 whole entry): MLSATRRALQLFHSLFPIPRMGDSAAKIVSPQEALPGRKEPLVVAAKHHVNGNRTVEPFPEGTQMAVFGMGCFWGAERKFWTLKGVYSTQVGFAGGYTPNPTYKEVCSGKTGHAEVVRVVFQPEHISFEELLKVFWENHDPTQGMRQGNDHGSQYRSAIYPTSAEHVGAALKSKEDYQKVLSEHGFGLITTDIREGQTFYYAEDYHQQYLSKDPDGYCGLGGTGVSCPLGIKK

[7] = target: T4, DNA repair and recombination protein RAD54-like (Homo sapiens, UniProt Q92698); assay: RAD54 Holliday junction migration blockers – biochemical, fluorescence, cherry-picked samples, dose series, confirmation (AID 651657); assay type: functional
T4 sequence (Q92698 whole entry): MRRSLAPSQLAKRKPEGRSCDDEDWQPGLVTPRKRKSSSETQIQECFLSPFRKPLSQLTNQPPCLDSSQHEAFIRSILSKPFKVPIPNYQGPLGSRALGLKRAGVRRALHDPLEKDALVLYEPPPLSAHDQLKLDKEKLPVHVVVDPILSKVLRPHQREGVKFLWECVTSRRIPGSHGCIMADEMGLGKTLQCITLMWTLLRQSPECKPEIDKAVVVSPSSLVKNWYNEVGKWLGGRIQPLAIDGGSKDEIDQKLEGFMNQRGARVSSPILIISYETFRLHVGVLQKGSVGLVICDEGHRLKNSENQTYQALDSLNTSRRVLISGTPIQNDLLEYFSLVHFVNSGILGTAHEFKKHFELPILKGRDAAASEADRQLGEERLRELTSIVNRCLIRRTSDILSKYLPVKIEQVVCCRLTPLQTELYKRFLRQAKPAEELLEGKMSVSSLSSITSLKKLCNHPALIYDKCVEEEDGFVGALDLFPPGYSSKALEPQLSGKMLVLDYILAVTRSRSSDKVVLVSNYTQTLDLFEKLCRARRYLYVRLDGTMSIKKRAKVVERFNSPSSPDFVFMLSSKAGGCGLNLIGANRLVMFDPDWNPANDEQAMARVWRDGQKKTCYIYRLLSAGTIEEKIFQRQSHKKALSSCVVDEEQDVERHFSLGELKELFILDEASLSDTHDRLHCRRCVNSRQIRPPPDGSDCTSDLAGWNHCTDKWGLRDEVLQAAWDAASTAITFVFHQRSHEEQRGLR

[8] = NIH-3T3 fibroblast cytotoxicity, dose response, cytotoxicity control, cell-based, fluorescence, Alamar Blue, secondary assay (AID 2327); assay type: functional;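 note: NIH-3T3 mouse fibroblasts cultured with fluconazole at 8 µg/mL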
[9] = test system: BJ; assay: BJ-TERT fibroblast viability loss – cell-based, RAS-independent, luminescence, dose response (AID 1933); assay type: functional; settings: Homo sapiens
[10] = test system: BJ; assay: cells; assay type: functional, cell-based; settings: Homo sapiens
[11] = fluconazole-exposed Candida albicans growth modulators – fluorescence, retest, confirmation (AID 2467); assay type: functional, cell-based
[12] = test system: BJ; assay: BJ-TERT-LT-ST fibroblast viability loss – cell-based, RAS-independent, luminescence, dose response (AID 1935); assay type: functional; settings: Homo sapiens;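 note: BJ fibroblasts immortalized with TERT plus LT and ST oncogenes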
[13] = DRD fibroblast viability loss – cell-based, non-viral oncogenic, luminescence, dose response (AID 1934); assay type: functional; settings: Homo sapiens
[14] = HEK-293T viability loss after treatment – luminescence, T-cell screen hits, cytotoxicity control for TCR NF-kB inhibitor project, dose response (AID 489026); assay type: functional, cell-based;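 note: cells exposed to compound about 14 hours before the viability readout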
[15] = target: T5, Microphthalmia-associated transcription factor (Homo sapiens, UniProt O75030); assay: reducers of TRPM1 reporter luminescence, concentration series – cell-based, SK-MEL-5, cherry-picked, set 3, MITF inhibitor project, dose response (AID 493073); assay type: functional;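 note: SK-MEL-5 melanoma cells with luciferase driven by the MITF target TRPM1 promoter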
T5 sequence (O75030 whole entry): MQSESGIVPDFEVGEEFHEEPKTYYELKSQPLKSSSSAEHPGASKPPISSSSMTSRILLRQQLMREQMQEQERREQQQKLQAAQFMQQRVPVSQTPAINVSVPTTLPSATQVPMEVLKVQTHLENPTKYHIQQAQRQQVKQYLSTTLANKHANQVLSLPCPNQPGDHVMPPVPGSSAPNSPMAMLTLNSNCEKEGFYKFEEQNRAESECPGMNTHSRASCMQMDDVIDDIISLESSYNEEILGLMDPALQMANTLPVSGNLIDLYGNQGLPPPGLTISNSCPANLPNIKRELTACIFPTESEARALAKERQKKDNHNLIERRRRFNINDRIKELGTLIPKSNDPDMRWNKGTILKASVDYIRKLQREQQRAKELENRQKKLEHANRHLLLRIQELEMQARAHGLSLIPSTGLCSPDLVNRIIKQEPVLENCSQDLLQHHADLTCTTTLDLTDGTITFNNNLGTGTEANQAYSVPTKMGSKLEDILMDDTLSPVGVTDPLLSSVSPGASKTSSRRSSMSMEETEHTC

[16] = test system: BJ; assay: growth inhibition of engineered Ras-driven BJ cells – cell-based, alamar blue fluorescence, cherrypicked samples, dose response (AID 2631); assay type: functional; settings: Homo sapiens;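 note: confirmatory dose-response assay in RAS-dependent BJ fibroblasts engineered with TERT, LT and ST, with cytotoxicity read by fluorescence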
[17] = reduction of Shn3 3'UTR-driven luciferase in osteoblasts – cell-based, Clone20 osteoblasts, firefly luciferase, cherry-picked, dose response (AID 624132); assay type: functional;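 note: firefly luciferase luminescence from reporter carrying the Shn3 3'UTR in osteoblasts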
[18] = loss of viability in HepG2 cells – cell-based, CellTiter-Glo, cherry-picked, cytotoxicity control for Shn3 inhibitor project, dose response (AID 624134); assay type: functional
[19] = non-specific 3'UTR reporter inhibition in Clone20-Shn3RL – cell-based, Renilla luciferase, cherry-picked, counter-screen for Shn3 inhibitor project, dose response (AID 624133); assay type: functional
[20] = A549 cell cytotoxicity, dose response, cytotoxicity control, plate reader, cherry-pick, antagonist series (AID 743412); assay type: functional, cell-based
[21] = toxicity toward HepG2 liver cells – cell-based, plate reader, cherry-pick, antagonist series, cytotoxicity control, dose response (AID 743416); assay type: functional
[22] = viability loss in HEK293 cells – cell-based, plate reader, cherry-picked samples, cytotoxicity control, dose response (AID 743446); assay type: functional

With `C=CCSC(=C(C#N)C#N)c1cc2c([nH]1)CCCC2` the AC50 [1] was 6.73 µM (active), the AC50 [2] was > 380 µM (inactive) and the IC50 [3] was > 25 µM (active). The EC50 [4] was 6.29 µM (active) and the CC50 [5] was 10.5 µM (active).
In the case of `Cc1cc(S)nc(S)n1`, the EC50 [6] is reported as > 104 µM (inactive).
In the case of `CCOC(=O)c1c(C)n(C)c2ccc(OCC(O)CN3CCC(C)CC3)cc12` (configuration not stated), the AC50 [7] is reported as 56.3 µM (active).
In the case of `O=c1c2ccccc2nc(/C=C/c2ccc([N+](=O)[O-])o2)n1-c1ccc(O)cc1`, the EC50 [8] is reported as 3.91 µM (inconclusive), the EC50 [9] is reported as 4.33 µM (active) and the EC50 [10] is reported as 3.48 µM (inconclusive). For the same molecule, the EC50 [11] was 0.165 µM (active), the EC50 [12] was 3.08 µM (inconclusive) and the EC50 [13] was 2.97 µM (active). The IC50 [14] was > 80 µM (inactive), the AC50 [15] was 4.45 µM (active) and the EC50 [16] was 7.06 µM (active). For the same molecule, the AC50 [17] was 3.24 µM (active), the AC50 [18] was 5.99 µM (active) and the AC50 [19] was 4.9 µM (active). For the same molecule, the AC50 [20] was 4.35 µM (active), the AC50 [21] was 4.17 µM (active) and the AC50 [22] was 4.16 µM (active).
In the case of `NS(=O)(=O)c1ccc(NC(=O)c2cc(-c3cccs3)nc3ccccc23)cc1`, the EC50 [9] is reported as 14.1 µM (active), the EC50 [10] is reported as 83.1 µM (active) and the EC50 [12] is reported as > 75 µM (inconclusive). For the same molecule, the EC50 [13] was 10.8 µM (active) and the EC50 [16] was > 133 µM (inactive).
